Test results as given in publication PMC8151276, “An Integrated Approach toward NanoBRET Tracers for Analysis of GPCR Ligand Engagement” (Molecules, 2021).

Columns and labels:
Format in all cases: binding
MC3R = target: T1, MC3R (Homo sapiens, UniProt P41968); assay: NanoBRET screen HiBiT-MC3R in HEK293
T1 construct: purchased Promega (in-house HiBiT-GPCR construct library, NanoBRET)
Protocol: (§1) Each tracer candidate was screened across the entire library of HiBiT-GPCR constructs using NanoBRET as the detection modality. As depicted in Figure 4A, the specificity of interactions was evaluated through decrease in BRET due to competitive displacement of a bound tracer by excess parental compound. Each tracer was analyzed for binding to each HiBiT-GPCR fusion in the absence and in the presence of competing parental compound. Briefly, HEK293 cells were transfected with HiBiT-GPCR constructs diluted into promoterless DNA to reduce expression and maximize translocation to the cell surface. Each tracer candidate was then screened at concentrations of 1 μM and 0.1 μM across cells expressing these fusions. Cells were treated for 1.5 h with tracer either alone or in the presence of 20 μM competing parental compound (i.e., control). BRET was measured upon addition of purified LgBiT and subsequent complementation with HiBiT genetically fused to a GPCR. The specificity of interactions was assessed through a decrease in BRET signal due to competitive displacement of the bound tracer. To further gauge the robustness of these interactions, the fold response over the control (i.e., BRETtracer/BRETcontrol) was calculated. We chose a 1.5-fold response, which translates to ≥7-fold signal over noise as the minimal threshold required to score an interaction as positive. […]. Below we highlight the screening results obtained for our exemplary fluorescent tracers based on Clozapine, Amitriptyline and AZD1283.
(§2) HiBiT-GPCR DNA constructs were diluted in 10 mM Tris pH 8 to a final concentration of 0.01 μg/μL, arrayed in 96-well plates and stored at −20 °C. For transfection, HEK293 cells were suspended in Opti-MEM (without phenol red) supplemented with 2% fetal bovine serum (Seradigm) and 100 units/mL penicillin–streptomycin (Gibco) at a final concentration of 220,000 cells/mL and dispensed into white 96-well plates at 90 μL/well. Subsequent transfections and screens were carried using an Agilent Bravo Automated Liquid Handling Platform. First, the 96-well HiBiT DNA arrays were diluted 25-fold in Opti-MEM (without serum or phenol red) to a final concentration of 0.0004 μg/μL and 20 μL of the diluted DNAs were transferred into new 96-well plates. Next, promoterless carrier DNA (1 μg/μL) was diluted 25-fold (0.04 μg/μL) and then dispensed into the diluted arrays at 20 μL/well. Following brief mixing, Viafect transfection reagent (Promega) diluted 16-fold into Opti-MEM was dispensed into the plates at 40 μL/well. After mixing by pipetting, plates were incubated for 10 min on the pipetting station deck. The DNA-transfection reagent complexes were then added to plates containing cells. To facilitate the screen, 10 μL of DNA-transfection reagent complexes were added in duplicates to the top 4 and bottom 4 rows, resulting in two identical 48-well arrays per plate. Plates with transfected cells were incubated for 18–20 h at 37 °C/5% CO2. A screen of each tracer across the entire library using two different concentrations requires duplicate plates of transfected cells. Depending on the number of tracers being screened, transfections can be scaled up using the same ratios. The next day, for each tracer, four 20× screening solutions in tracer dilution buffer (Promega) were prepared: two duplicates at final concentration of 20 μM and two duplicates at a final concentration of 2 μM. A competing unmodified compound was added to one of each duplicate at a final concentration of 400 μM. The four resulting solutions were diluted 4-fold in Opti-MEM without serum or phenol red to generate 5× solutions (5 µM and 0.5 µM tracer +/− 100 μM competing compound). To screen the library, a BioTek MultiFlo FX liquid dispenser was used to dispense 22.5 µL of tracer solution to the top 4 rows and 22.5 µL tracer + competing compound solution to the 4 bottom rows. Plates were briefly mixed on an orbital shaker and incubated for 1.5 h at room temperature. […]

NMUR1 = target: T2, NMUR1 (Homo sapiens, UniProt Q9HB89); assay: NanoBRET screen HiBiT-NMUR1 in HEK293
T2 construct: purchased Promega (in-house HiBiT-GPCR construct library, NanoBRET)
T2 sequence (Q9HB89 1-426): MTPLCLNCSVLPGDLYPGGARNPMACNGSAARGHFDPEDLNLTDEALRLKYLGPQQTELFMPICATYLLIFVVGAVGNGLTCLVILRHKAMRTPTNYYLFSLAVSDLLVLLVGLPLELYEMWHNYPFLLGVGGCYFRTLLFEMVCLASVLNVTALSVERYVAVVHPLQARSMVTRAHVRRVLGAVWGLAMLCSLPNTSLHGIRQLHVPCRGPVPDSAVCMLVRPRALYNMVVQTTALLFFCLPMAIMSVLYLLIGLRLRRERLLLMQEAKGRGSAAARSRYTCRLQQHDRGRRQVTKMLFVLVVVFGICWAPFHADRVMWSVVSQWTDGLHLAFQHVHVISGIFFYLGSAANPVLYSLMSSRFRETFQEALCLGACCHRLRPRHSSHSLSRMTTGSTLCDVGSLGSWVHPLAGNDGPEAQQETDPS
Protocol: as §1, §2

GRM8 = target: T3, GRM8 (Homo sapiens, UniProt O00222); assay: NanoBRET screen HiBiT-GRM8 in HEK293
T3 construct: purchased Promega (in-house HiBiT-GPCR construct library, NanoBRET)
T3 sequence (O00222 34-908): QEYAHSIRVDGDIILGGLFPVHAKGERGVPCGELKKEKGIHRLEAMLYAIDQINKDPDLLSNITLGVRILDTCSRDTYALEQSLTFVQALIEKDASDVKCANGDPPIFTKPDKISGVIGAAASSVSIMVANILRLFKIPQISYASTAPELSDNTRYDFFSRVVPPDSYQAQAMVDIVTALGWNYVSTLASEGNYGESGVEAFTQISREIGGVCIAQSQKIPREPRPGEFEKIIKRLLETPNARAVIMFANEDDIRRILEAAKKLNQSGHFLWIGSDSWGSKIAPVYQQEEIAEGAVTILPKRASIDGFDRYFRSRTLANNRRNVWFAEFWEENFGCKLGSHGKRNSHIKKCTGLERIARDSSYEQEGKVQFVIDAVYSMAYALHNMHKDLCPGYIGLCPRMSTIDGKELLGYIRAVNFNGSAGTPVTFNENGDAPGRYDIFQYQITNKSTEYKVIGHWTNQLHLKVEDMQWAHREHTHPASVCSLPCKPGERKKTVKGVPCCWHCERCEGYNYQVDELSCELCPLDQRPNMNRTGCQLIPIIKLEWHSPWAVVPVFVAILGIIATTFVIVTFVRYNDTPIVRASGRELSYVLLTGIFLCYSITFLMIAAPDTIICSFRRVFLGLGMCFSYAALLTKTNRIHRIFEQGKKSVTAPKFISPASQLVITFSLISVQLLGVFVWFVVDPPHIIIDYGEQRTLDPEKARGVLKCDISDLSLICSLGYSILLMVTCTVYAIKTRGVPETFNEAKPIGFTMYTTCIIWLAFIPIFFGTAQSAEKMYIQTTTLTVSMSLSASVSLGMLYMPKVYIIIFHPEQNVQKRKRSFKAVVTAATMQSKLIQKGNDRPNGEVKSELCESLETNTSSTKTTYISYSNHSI
Protocol: as §1, §2

TBXA2R = target: T4, TBXA2R (Homo sapiens, UniProt P21731); assay: NanoBRET screen HiBiT-TBXA2R in HEK293
T4 construct: purchased Promega (in-house HiBiT-GPCR construct library, NanoBRET)
T4 sequence (P21731 1-343): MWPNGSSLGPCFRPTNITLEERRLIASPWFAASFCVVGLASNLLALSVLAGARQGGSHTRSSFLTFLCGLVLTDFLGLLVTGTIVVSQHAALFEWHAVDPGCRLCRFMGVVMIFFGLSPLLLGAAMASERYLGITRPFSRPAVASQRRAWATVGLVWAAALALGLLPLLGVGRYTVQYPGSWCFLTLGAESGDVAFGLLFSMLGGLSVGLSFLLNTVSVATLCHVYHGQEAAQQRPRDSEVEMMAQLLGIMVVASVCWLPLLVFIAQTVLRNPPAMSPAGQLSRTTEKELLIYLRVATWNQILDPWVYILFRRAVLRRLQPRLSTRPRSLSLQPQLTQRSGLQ
Protocol: as §1, §2

HRH3 = target: T5, HRH3 (Homo sapiens, UniProt Q9Y5N1); assay: NanoBRET screen HiBiT-HRH3 in HEK293
T5 construct: purchased Promega (in-house HiBiT-GPCR construct library, NanoBRET)
T5 sequence (Q9Y5N1 whole entry): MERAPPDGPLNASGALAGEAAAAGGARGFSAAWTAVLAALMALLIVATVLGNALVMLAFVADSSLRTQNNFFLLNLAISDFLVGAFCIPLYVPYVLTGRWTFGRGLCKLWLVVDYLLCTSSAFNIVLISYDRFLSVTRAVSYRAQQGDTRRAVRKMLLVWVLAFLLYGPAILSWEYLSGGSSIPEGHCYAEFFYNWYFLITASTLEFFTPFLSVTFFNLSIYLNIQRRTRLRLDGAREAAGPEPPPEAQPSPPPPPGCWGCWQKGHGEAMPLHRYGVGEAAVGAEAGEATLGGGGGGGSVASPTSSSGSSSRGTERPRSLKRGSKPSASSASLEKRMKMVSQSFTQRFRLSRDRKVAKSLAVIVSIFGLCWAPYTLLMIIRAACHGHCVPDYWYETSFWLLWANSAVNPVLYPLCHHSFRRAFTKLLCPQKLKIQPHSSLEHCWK
Protocol: as §1, §2

T1 sequence (P41968 whole entry): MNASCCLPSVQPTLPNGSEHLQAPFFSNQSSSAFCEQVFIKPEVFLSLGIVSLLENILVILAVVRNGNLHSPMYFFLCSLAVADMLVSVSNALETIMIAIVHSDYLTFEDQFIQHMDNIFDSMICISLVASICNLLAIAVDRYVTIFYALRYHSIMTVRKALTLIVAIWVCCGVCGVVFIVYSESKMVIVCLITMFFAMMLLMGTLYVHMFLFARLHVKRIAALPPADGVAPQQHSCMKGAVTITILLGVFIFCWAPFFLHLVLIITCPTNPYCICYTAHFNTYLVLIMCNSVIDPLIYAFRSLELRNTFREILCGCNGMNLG

Compound	NanoBRET Fold Response (MC3R; MC3R, tracer 0.1μM)	NanoBRET Fold Response (MC3R; MC3R, tracer 1μM)	NanoBRET Fold Response (NMUR1; NMUR1, tracer 0.1μM)	NanoBRET Fold Response (NMUR1; NMUR1, tracer 1μM)	NanoBRET Fold Response (GRM8; GRM8, tracer 0.1μM)	NanoBRET Fold Response (GRM8; GRM8, tracer 1μM)	NanoBRET Fold Response (TBXA2R; TBXA2R, tracer 0.1μM)	NanoBRET Fold Response (TBXA2R; TBXA2R, tracer 1μM)	NanoBRET Fold Response (HRH3; HRH3, tracer 0.1μM)	NanoBRET Fold Response (HRH3; HRH3, tracer 1μM)	other results
O=C(CCc1ccc2n1[B-](F)(F)[N+]1=C(c3ccc[nH]3)C=CC1=C2)NCc1ccc(C(=O)NCCOCCC(=O)N[C@@H]2CC[C@@]3(O)[C@H]4Cc5ccc(O)c6c5[C@@]3(CCN4CC3CC3)[C@H]2O6)cc1 [Naltrexone-3-NB590]	0.90	1.11	0.85	1.07	1.07	0.93	1.24	1.13	0.76	0.77	
CCCn1c(=O)c2[nH]c(-c3ccc(OCC(=O)NCCNC(=O)CCOCCNC(=O)c4ccc(CNC(=O)CCc5ccc6n5[B-](F)(F)[N+]5=C(c7ccc[nH]7)C=CC5=C6)cc4)cc3)nc2n(CCC)c1=O [XAC-3-NB590]	1.04	1.10	0.91	1.00	0.99	1.04	1.04	1.04	0.81	1.33	
CC(C)N(CC[C@H](c1ccccc1)c1cc(CCNC(=O)c2ccc(CNC(=O)CCc3ccc4n3[B-](F)(F)[N+]3=C(c5ccc[nH]5)C=CC3=C4)cc2)ccc1O)C(C)C [Tolterodine-BZ-NB590]	1.03	1.01	0.78	1.02	1.02	1.03	0.91	1.03	1.16	1.28	
COc1ccc2[nH]c(-c3ccc(CNC(=O)CCOCCOCCOCCOCCNC(=O)CCc4ccc5n4[B-](F)(F)[N+]4=C(c6ccc[nH]6)C=CC4=C5)cc3)c(CCNC(C)=O)c2n1 [AzomelatoninICO9-2-NB590]											NanoBRET Fold Response (MC3R; 0.1μM tracer): 1.02; NanoBRET Fold Response (MC3R; 1μM tracer): 0.72; NanoBRET Fold Response (NMUR1; 0.1μM tracer): 0.77; NanoBRET Fold Response (NMUR1; 1μM tracer): 0.91; NanoBRET Fold Response (GRM8; 0.1μM tracer): 0.98; NanoBRET Fold Response (GRM8; 1μM tracer): 0.98; NanoBRET Fold Response (TBXA2R; 0.1μM tracer): 1.27; NanoBRET Fold Response (TBXA2R; 1μM tracer): 0.99; NanoBRET Fold Response (HRH3; 0.1μM tracer): 1.09; NanoBRET Fold Response (HRH3; 1μM tracer): 1.03
CN1CCN(C2=Nc3cc(Cl)ccc3N(CC(=O)NCCOCCOCCOCCOCCNC(=O)CCc3ccc4n3[B-](F)(F)[N+]3=C(c5ccc[nH]5)C=CC3=C4)c3ccccc32)CC1 [Clozapine-c-2-NB590]											NanoBRET Fold Response (MC3R; MC3R, 0.1μM tracer): 1.02; NanoBRET Fold Response (MC3R; MC3R, 1μM tracer): 1.03; NanoBRET Fold Response (NMUR1; NMUR1, 0.1μM tracer): 1.01; NanoBRET Fold Response (NMUR1; NMUR1, 1μM tracer): 1.00; NanoBRET Fold Response (GRM8; GRM8, 0.1μM tracer): 0.97; NanoBRET Fold Response (GRM8; GRM8, 1μM tracer): 1.07; NanoBRET Fold Response (TBXA2R; TBXA2R, 0.1μM tracer): 1.03; NanoBRET Fold Response (TBXA2R; TBXA2R, 1μM tracer): 0.95; NanoBRET Fold Response (HRH3; HRH3, 0.1μM tracer): 0.98; NanoBRET Fold Response (HRH3; HRH3, 1μM tracer): 0.86
